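Following 48 hours of exposure in 96-well plates, responses at five concentrations were used to interpolate endpoints linearly. The concentration for 50% growth inhibition is given as GI50.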 Activity calls are given as the source filed them. No stated cut-off is given here; in the data, active = GI50 up to about 1.1 µM and inactive = higher.
Columns and labels:
Assay in all cases: NCI tumour cell line growth inhibition, 48 h
[1] = tested on: KM12
[2] = tested on: OVCAR-3
[3] = tested on: NCI/ADR-RES
[4] = tested on: MDA-MB-435
[5] = tested on: SNB-75
[6] = tested on: MCF7
[7] = tested on: CCRF-CEM
[8] = tested on: UACC-62
[9] = tested on: A549
[10] = tested on: OVCAR-4
[11] = tested on: IGROV-1
[12] = tested on: HOP-92
[13] = tested on: A498
[14] = tested on: SK-MEL-28
[15] = tested on: SK-MEL-5
[16] = tested on: PC-3
[17] = tested on: TK-10
[18] = tested on: UO-31
[19] = tested on: MDA-N

Structure (SMILES) | GI50 [1] | GI50 [2] | GI50 [3] | GI50 [4] | GI50 [5] | GI50 [6] | GI50 [7] | GI50 [8] | GI50 [9] | GI50 [10] | GI50 [11] | GI50 [12] | GI50 [13] | GI50 [14] | GI50 [15] | GI50 [16] | GI50 [17] | GI50 [18] | GI50 [19]
Cn1c2ccccc2c(=O)c2c(O)cc3c(c21)C=CC1(CCCC1)O3 | > 100 µM (inactive) | > 100 µM (inactive) | > 100 µM (inactive) | > 100 µM (inactive) | > 100 µM (inactive) | > 100 µM (inactive) | > 100 µM (inactive) | > 100 µM (inactive) | > 100 µM (inactive) | 41.7 µM (inactive) | 61.7 µM (inactive) | 25.7 µM (inactive) | > 100 µM (inactive) | > 100 µM (inactive) | > 100 µM (inactive) | > 100 µM (inactive) | > 100 µM (inactive) | – | –
NC(=S)c1cccc(C2Nc3ccccc3O2)c1 (stereo unspecified) | 37.2 µM (inactive) | > 100 µM (inactive) | 43.9 µM (inactive) | 43 µM (inactive) | > 100 µM (inactive) | 56.9 µM (inactive) | – | 19.5 µM (inactive) | 41.5 µM (inactive) | 31.5 µM (inactive) | > 100 µM (inactive) | > 100 µM (inactive) | – | > 100 µM (inactive) | 23.5 µM (inactive) | 51.2 µM (inactive) | 81.1 µM (inactive) | > 100 µM (inactive) | –
Cn1c2ccccc2c2ccc3c(c21)C(=O)c1ccccc1C3=O | 27.8 µM (inactive) | 12.9 µM (inactive) | 13.7 µM (inactive) | 16 µM (inactive) | – | – | 3.02 µM (inactive) | 16.7 µM (inactive) | 24.7 µM (inactive) | 17.5 µM (inactive) | 13.8 µM (inactive) | 18.9 µM (inactive) | > 10 µM (inactive) | 14.6 µM (inactive) | 13.2 µM (inactive) | 13 µM (inactive) | 14.4 µM (inactive) | 25.5 µM (inactive) | –
O=C1c2ccccc2NC(=O)C2C1C(c1ccccc1)CC2(O)c1ccccc1 (stereo unspecified) | 48 µM (inactive) | 31.6 µM (inactive) | 31.7 µM (inactive) | > 100 µM (inactive) | 0.0128 µM (active) | > 100 µM (inactive) | 27.7 µM (inactive) | > 100 µM (inactive) | 30 µM (inactive) | 17.7 µM (inactive) | 52.4 µM (inactive) | 9.89 µM (inactive) | > 100 µM (inactive) | > 100 µM (inactive) | 84.5 µM (inactive) | 18 µM (inactive) | 39.3 µM (inactive) | – | –
CC(=O)Nc1ccc(N2C(=O)/C(=C\c3cccc(Oc4ccccc4)c3)SC2c2ccccc2)cc1 (stereo unspecified) | 24.4 µM (inactive) | 25.5 µM (inactive) | 29.5 µM (inactive) | 32.5 µM (inactive) | – | 21 µM (inactive) | 17.3 µM (inactive) | 22.4 µM (inactive) | 27.1 µM (inactive) | 32.4 µM (inactive) | – | 16.6 µM (inactive) | 50.1 µM (inactive) | 27.4 µM (inactive) | 23.7 µM (inactive) | – | 34.4 µM (inactive) | 82.6 µM (inactive) | 18.9 µM (inactive)
CCCCC/N=C/c1c(O)c(O)c(C(C)C)c2cc(C)c(-c3c(C)cc4c(C(C)C)c(O)c(O)c(/C=N/CCCCC)c4c3O)c(O)c12 | 4.7 µM (inactive) | 5.28 µM (inactive) | 27.1 µM (inactive) | 6.3 µM (inactive) | – | 4.81 µM (inactive) | 25.2 µM (inactive) | 7.03 µM (inactive) | 5.58 µM (inactive) | – | 9.98 µM (inactive) | 3.73 µM (inactive) | 27.3 µM (inactive) | 6.19 µM (inactive) | 6.3 µM (inactive) | 5.35 µM (inactive) | 15 µM (inactive) | 7.13 µM (inactive) | –
O=C1N=C(S)NNC12c1ccccc1-c1ccccc12 | > 10 µM (inactive) | – | > 10 µM (inactive) | – | > 10 µM (inactive) | 8.71 µM (inactive) | > 10 µM (inactive) | > 10 µM (inactive) | > 10 µM (inactive) | > 10 µM (inactive) | > 10 µM (inactive) | > 10 µM (inactive) | 3.31 µM (inactive) | > 10 µM (inactive) | 5.22 µM (inactive) | – | > 10 µM (inactive) | 4.81 µM (inactive) | > 10 µM (inactive)
N#Cc1ccc(Oc2nc3ccccc3nc2C(=O)O)cc1 | > 100 µM (inactive) | > 100 µM (inactive) | > 100 µM (inactive) | > 100 µM (inactive) | > 100 µM (inactive) | – | > 100 µM (inactive) | > 100 µM (inactive) | > 100 µM (inactive) | > 100 µM (inactive) | > 100 µM (inactive) | > 100 µM (inactive) | > 100 µM (inactive) | > 100 µM (inactive) | > 100 µM (inactive) | > 100 µM (inactive) | > 100 µM (inactive) | > 100 µM (inactive) | –
